Measurements as given in PMC5674860, “A novel, highly efficient β-glucosidase with a cellulose-binding domain: characterization and properties of native and recombinant proteins” (Biotechnology for Biofuels, 2017).

Tests used:
Format in all cases: biochemical
BGL-2T* [1] = target: T1, BGL-2T* (Talaromyces amestolkiae, UniProt A0A186NAE7); test: glucose release (Glucose-TR kit), Lineweaver-Burk; conditions: 100 mM sodium acetate pH 4, optimal temperature (70 °C), BSA; read-out: K m (mM) / BGL-2T*
T1 construct: gene bgl2; recombinant truncated form lacking linker and CBD; stop codon in retained third intron; pPIC9, Pichia pastoris KM71, secreted; monomer
From the text: glucose release (Glucose-TR kit), Lineweaver-Burk on BGL-2T*

BGL-2T* [2] = target: T1, BGL-2T*; test: o-nitrophenol release, Lineweaver-Burk; conditions: acetate buffer, optimal pH (3-4) and temperature (70 °C), BSA; read-out: K m (mM) / BGL-2T*
From the text: o-nitrophenol release, Lineweaver-Burk on BGL-2T*

BGL-2T* [3] = target: T1, BGL-2T*; test: p-nitrophenol release at […] nm, Lineweaver-Burk; conditions: acetate buffer, optimal pH (3-4) and temperature (70 °C), BSA; read-out: K m (mM) / BGL-2T*

T1 sequence (A0A186NAE7 1-700 limits assumed): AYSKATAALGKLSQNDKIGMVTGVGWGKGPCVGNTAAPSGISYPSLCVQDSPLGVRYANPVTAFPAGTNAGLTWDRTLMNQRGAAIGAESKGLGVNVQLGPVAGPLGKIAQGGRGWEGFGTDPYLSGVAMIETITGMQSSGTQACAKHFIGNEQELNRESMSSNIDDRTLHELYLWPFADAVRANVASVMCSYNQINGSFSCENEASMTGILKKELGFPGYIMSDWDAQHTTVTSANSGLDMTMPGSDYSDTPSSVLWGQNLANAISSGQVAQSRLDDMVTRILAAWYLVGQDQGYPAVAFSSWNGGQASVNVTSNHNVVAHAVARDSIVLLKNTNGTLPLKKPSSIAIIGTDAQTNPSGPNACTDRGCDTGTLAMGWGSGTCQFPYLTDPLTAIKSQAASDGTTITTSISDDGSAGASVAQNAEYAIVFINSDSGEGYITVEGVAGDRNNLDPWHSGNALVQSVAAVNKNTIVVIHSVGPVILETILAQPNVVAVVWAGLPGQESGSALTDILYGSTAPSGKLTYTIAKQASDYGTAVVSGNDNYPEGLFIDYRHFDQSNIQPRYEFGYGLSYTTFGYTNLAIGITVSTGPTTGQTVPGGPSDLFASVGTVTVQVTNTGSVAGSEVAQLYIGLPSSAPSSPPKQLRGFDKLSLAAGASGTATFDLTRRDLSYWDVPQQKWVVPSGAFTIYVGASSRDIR

Row | Km (BGL-2T* [1]) [mM] | SMILES | further results
1 | 0.68 ± 0.01 | OC[C@H]1O[C@@H](O[C@H]2[C@H](O)[C@@H](O)[C@H](O[C@H]3[C@H](O)[C@@H](O)[C@H](O[C@H]4[C@H](O)[C@@H](O)[C@H](O[C@H]5[C@H](O)[C@@H](O)C(O)O[C@@H]5CO)O[C@@H]4CO)O[C@@H]3CO)O[C@@H]2CO)[C@H](O)[C@@H](O)[C@@H]1O (some centres unmarked) [Cellopentaose] | –
2 | 0.49 ± 0.03 | OC[C@H]1O[C@@H](O[C@H]2[C@H](O)[C@@H](O)[C@H](O[C@H]3[C@H](O)[C@@H](O)[C@H](O[C@H]4[C@H](O)[C@@H](O)C(O)O[C@@H]4CO)O[C@@H]3CO)O[C@@H]2CO)[C@H](O)[C@@H](O)[C@@H]1O (some centres unmarked) [Cellotetraose] | –

Continued, compound first:

Row | SMILES | Km (BGL-2T* [1]) [mM] | further results
3 | OC[C@H]1O[C@@H](O[C@H]2[C@H](O)[C@@H](O)[C@H](O[C@H]3[C@H](O)[C@@H](O)C(O)O[C@@H]3CO)O[C@@H]2CO)[C@H](O)[C@@H](O)[C@@H]1O (some centres unmarked) [Cellotriose] | 1.42 ± 0.06 | –
4 | O=[N+]([O-])c1ccccc1O[C@@H]1O[C@H](CO)[C@@H](O)[C@H](O)[C@H]1O [oNPG, o-nitrophenyl-β-D-glucopyranoside] | – | Km (BGL-2T* [2]): 0.67 ± 0.04 mM
5 | O=[N+]([O-])c1ccc(O[C@@H]2O[C@H](CO)[C@@H](O)[C@H](O)[C@H]2O)cc1 [pNPG, p-nitrophenyl-β-D-glucopyranoside] | – | Km (BGL-2T* [3]): 0.34 ± 0.02 mM
